Measurements published in US10392368B2, “Pyrazolo and triazolo bicyclic compounds as JAK kinase inhibitors” (THERAVANCE BIOPHARMA R&D IP, LLC, priority 2017, dated 2019).

Tests used:
[1] = Dynamic moisture sorption (DMS) assessment; assay type: physicochemical; details: 25° C.; for hygroscopicity: DMS, 5% to 90% relative humidity; for weight gain (moisture uptake): humidity range of 5% to 90% relative humidity
Method: Dynamic moisture sorption (DMS) measurements were performed using a VTI atmospheric microbalance, SGA-100 system (VTI Corp., Hialeah, Fla. 33016). A weighed sample was used and the humidity was lowest possible value (close to 0% RH) at the start of the analysis. The DMS analysis consisted of an initial drying step (0% RH) for 120 minutes, followed by two cycles of sorption and desorption with a scan rate of 5% RH/step over the humidity range of 5% RH to 90% RH. The DMS run was performed isothermally at 25° C.

[2] = tested on: IL-2 stimulated pSTAT5 in CD4+ T cells; assay: Inhibition of IL-2 stimulated pSTAT5 in CD4+ T cells isolated from murine splenocytes; assay type: cell-based; details: Mus musculus, AlphaLisa, read-out: pIC50, inhibition of IL-2 stimulated pSTAT5 (converted)
Method: The potency of test compounds for inhibition of interleukin-2 (IL-2) stimulated STAT5 phosphorylation was measured in the CD4+ T cells isolated from murine splenocytes using AlphaLisa. Because IL-2 signals through JAK3, this assay provides a measure of JAK3 cellular potency in mouse.
Phosphorylated STAT5 was measured via the AlphaLISA SureFire Ultra pSTAT5 (Tyr694/699) kit (PerkinElmer).
CD4+ T cells were isolated from murine splenocytes via negative selection on a magnetic column (Miltnyi Biotec) and re-suspended in assay media (phenol red-free DMEM (Life Technologies) supplemented with 10% FBS (ATCC)). Cells were seeded at 50,000 cells/well in assay media (2 μL/well). Compounds were serially diluted in DMSO and diluted to 2× final concentration in assay media. Compound was added (4 μl/well) and the cells incubated at 37° C., 5% CO2 for 1 hour, followed by the addition of IL-2 (R&D Systems; final concentration 7 ng/ml) in pre-warmed assay media (2 μL) for 30 minutes. After cytokine stimulation, cells were lysed with 2 μl of 5× AlphaLisa Lysis Buffer (PerkinElmer). The lysate was shaken at 900 rpm for 10 minutes at room temperature (RT). Phosphorylated STAT5 was measured via the pSTAT5 AlphaLisa kit (PerkinElmer). Freshly prepared acceptor bead mixture was dispensed onto lysate (5 ul) under green filtered <100 lux light. Plates were shaken at 900 rpm for 2 mins, briefly spun down, and incubated for 2 hrs at RT in the dark. Donor beads were dispensed (5 μl) under green filtered <100 lux light. Plates were shaken at 900 rpm for 2 mins, briefly spun down, and incubated overnight at RT in the dark. Luminescence was measured with excitation at 689 nm and emission at 570 nm using an EnVision plate reader (PerkinElmer) under green filtered <100 lux light.
To determine the inhibitory potency of test compounds in response to IL-2, the average emission intensity of beads bound to pSTAT5 was measured in primary CD4+ T cells isolated from murine splenocytes. IC50 values were determined from analysis of the inhibition curves of signal intensity vs compound concentration. Data are expressed as pIC50 (negative decadic logarithm IC50) values (mean±standard deviation).

[3] = Colon and plasma mouse pharmacokinetics; assay type: in vivo; details: mouse, colon tissue / plasma; male Balb/c mice, 10 mg/kg PO; 0.5, 2 and 6 hours; read-out: colon to plasma ratio (colon AUC to plasma AUC)
Method: 6 male Balb/c mice were administered 10 mg/kg of compound in 1% HPMC+0.1% Tween-80 by PO administration. At 0.5, 2 and 6 hours after dose administration, animals were anesthetized, and terminal blood samples were collected by cardiac puncture, followed by collection of colon contents and colon tissue.
Blood samples were collected into K2EDTA and stored on wet ice until processed to plasma by centrifugation (12000 rpm at 4° C.). Plasma samples were transferred to cluster tubes and placed on dry ice prior to freezer storage. The colon contents from each animal were collected at each terminal blood collection time point. The colon tissues were flushed with saline and patted dry. The colon and colon content tissues were homogenized using sterile water containing 0.1% formic acid 9:1 (water:tissue, v/w). The homogenized tissues and colon contents were transferred to cluster tubes and placed on dry ice prior to freezer storage. All samples were analyzed using LC/MS/MS against analytical standards.
The composite pharmacokinetic parameters of the compounds were determined by non-compartmental analysis using Phoenix WinNonlin Version 6 (Certara, St. Louis, Mo.) and using mean values from 2 animals/time point. For plasma concentrations below the quantification limit (BQL), the lowest concentration measurable or the BLOQ (below limit of quantification) was used.
A colon to plasma ratio was determined as the ratio of the colon AUC to the plasma AUC.

[4] = tested on: oxazolone-induced colitis; assay: Mouse model of oxazolone-induced colitis; assay type: in vivo; details: 3 mg/kg (PO, BID)
Method: Oxazolone-induced colitis is an experimental model that has a histological resemblance to human ulcerative colitis (Heller et al. Immunology, 2002, 17, 629-638). Adult BALB/C mice from Harlan were used in the assay. On day 1, animals were lightly anesthetized with isoflurane and the hairs between the shoulder were carefully removed before oxazolone (4%, 150 μL, 4:1 acetone:olive oil formulation) or vehicle solution was slowly applied for skin sensitization. Seven days after skin sensitization, the mice were fasted around 6 hours prior, anesthetized with ketamine/xylazine injection, and a 1 mL syringe equipped with a 3.5-F catheter, filled with oxazolone solution, was inserted carefully about 4 cm into the colon of the mouse. Following insertion, 50 μL of the oxazolone solution (0.8% in 1:1 ethanol:water formulation) was injected very slowly (over 30 sec using an injection pump) into the colon. Drug treatment (PO, QD or BID or TID) or vehicle was initiated a day prior to the oxazolone intrarectal (IR) challenge. Two-day post oxazolone intrarectal challenge, the disease was assessed by treatment-blinded experimenters for each mouse according to the criteria score: stool consistency score (0, normal; 2, loose; 4, diarrhea), gross bleeding score (0, absence; 2, blood tinged; 4, presence); Combined stool score endpoint=stool consistency score+stool blood score.
Select compounds were tested in the assay.

[5] = target: T1, JAK1 (Homo sapiens, UniProt P23458); assay: Biochemical JAK1 kinase assay (LanthaScreen)
T1 construct: GST; purchased Life Technologies
Summary of the method: (§1)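 Recombinant GST-tagged JAK enzymes with GFP-STAT1 peptide substrate in 50 mM HEPES pH 7.5, 10 mM MgCl2, 1 mM EGTA, 0.01% Brij-35; compounds pre-incubated 1 h, then ATP added, 1 h reaction at ambient temperature. TR-FRET (Tb-anti-pSTAT1 pTyr701, 520/495 nm) after EDTA stop; IC50 by 4-parameter fit, converted to pKi via Cheng-Prusoff.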

[6] = target: T2, JAK2 (Homo sapiens, UniProt O60674); assay: Biochemical JAK2 kinase assay (LanthaScreen)
T2 construct: GST; purchased Life Technologies
Summary of the method: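 GST-tagged recombinant JAK2 pre-incubated 1 h at ambient temperature with compound and GFP-STAT1 peptide in HEPES pH 7.5/MgCl2 buffer, then ATP added for a 1 h reaction with 1% DMSO. TR-FRET read after EDTA and Tb-anti-pSTAT1 (pTyr701) addition; IC50 from 4-parameter fit, converted to pKi by Cheng-Prusoff.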

[7] = target: T3, Tyk2 (Homo sapiens, UniProt P29597); assay: Biochemical Tyk2 kinase assay (LanthaScreen)
T3 construct: GST; purchased Life Technologies
Summary of the method: as §1

[8] = tested on: IL-2 stimulated pSTAT5 in Tall-1 T cells; assay: Cellular JAK3 potency assay: inhibition of IL-2 stimulated pSTAT5 in Tall-1 T cells; assay type: cell-based, human; details: IL-2 stimulated pSTAT5 in Tall-1 T cells
Summary of the method: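 In human Tall-1 T cells, IL-2 (300 ng/ml final, 30 min) drives STAT5 phosphorylation after a 1 h compound pretreatment. Lysates are assayed for pSTAT5 by AlphaLisa, and IC50 derived from signal versus concentration is expressed as pIC50.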

[9] = target: T4, JAK3 (Homo sapiens, UniProt P52333); assay: Biochemical JAK3 kinase assay (LanthaScreen); parameters: GST; purchased Life Technologies
T4 sequence (P52333 1-1124): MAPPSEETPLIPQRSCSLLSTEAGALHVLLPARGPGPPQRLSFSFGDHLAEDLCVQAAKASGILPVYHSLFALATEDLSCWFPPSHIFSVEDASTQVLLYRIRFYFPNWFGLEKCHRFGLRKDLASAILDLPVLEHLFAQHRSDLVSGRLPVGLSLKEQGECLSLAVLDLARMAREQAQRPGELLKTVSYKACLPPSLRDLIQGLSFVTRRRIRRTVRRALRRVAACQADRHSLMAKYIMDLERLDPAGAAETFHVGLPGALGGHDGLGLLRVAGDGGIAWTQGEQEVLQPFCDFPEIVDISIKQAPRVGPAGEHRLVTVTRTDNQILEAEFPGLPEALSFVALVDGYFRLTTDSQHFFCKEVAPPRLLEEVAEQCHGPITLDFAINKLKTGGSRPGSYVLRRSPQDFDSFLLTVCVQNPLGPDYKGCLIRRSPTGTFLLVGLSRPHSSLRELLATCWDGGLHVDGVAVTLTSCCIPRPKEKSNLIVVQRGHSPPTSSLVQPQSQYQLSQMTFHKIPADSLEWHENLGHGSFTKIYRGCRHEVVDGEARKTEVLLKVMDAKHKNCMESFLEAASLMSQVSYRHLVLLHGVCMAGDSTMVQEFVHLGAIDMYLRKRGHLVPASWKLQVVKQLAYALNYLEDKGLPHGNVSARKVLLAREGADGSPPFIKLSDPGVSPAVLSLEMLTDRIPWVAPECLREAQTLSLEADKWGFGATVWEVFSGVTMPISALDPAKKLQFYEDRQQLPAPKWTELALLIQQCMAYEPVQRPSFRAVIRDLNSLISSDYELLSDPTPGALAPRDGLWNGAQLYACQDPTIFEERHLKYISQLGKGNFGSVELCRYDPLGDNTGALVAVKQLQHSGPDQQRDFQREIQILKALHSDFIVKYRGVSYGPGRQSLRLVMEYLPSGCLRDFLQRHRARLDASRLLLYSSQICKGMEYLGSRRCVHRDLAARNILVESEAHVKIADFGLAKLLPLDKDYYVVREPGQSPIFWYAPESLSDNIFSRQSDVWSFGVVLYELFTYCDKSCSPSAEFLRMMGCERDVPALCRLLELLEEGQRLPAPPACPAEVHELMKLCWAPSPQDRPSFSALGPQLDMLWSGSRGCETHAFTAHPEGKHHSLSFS
Summary of the method: as §1

T3 sequence (P29597 whole entry): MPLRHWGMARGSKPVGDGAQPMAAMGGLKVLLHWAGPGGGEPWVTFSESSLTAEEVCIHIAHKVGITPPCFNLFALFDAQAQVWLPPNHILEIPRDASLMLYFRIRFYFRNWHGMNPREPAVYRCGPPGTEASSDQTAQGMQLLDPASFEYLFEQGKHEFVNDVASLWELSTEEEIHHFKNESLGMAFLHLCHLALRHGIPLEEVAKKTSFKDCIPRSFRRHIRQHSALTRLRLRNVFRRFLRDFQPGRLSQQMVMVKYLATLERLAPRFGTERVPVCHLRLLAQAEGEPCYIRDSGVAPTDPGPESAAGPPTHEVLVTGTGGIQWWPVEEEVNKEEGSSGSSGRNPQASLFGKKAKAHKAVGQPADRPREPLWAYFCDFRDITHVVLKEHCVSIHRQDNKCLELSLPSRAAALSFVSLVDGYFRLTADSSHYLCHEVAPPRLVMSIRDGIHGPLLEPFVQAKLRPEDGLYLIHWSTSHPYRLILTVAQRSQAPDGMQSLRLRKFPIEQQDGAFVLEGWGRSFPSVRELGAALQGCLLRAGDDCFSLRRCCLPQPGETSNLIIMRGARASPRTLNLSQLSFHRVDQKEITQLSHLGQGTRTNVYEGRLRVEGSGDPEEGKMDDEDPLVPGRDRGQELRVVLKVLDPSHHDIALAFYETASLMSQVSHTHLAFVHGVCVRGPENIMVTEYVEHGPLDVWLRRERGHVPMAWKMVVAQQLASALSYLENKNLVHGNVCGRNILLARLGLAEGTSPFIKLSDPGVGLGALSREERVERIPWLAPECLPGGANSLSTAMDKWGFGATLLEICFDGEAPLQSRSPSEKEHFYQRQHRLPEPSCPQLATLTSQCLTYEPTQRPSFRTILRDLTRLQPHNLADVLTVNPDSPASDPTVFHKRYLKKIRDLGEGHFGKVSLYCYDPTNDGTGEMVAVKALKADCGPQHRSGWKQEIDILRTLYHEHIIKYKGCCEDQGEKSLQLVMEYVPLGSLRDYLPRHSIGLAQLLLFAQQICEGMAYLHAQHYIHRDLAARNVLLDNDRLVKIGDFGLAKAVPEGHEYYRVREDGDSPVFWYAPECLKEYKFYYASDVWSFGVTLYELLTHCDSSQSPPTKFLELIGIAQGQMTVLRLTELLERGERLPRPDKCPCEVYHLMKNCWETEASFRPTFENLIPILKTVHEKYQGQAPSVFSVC
T2 sequence (O60674 whole entry): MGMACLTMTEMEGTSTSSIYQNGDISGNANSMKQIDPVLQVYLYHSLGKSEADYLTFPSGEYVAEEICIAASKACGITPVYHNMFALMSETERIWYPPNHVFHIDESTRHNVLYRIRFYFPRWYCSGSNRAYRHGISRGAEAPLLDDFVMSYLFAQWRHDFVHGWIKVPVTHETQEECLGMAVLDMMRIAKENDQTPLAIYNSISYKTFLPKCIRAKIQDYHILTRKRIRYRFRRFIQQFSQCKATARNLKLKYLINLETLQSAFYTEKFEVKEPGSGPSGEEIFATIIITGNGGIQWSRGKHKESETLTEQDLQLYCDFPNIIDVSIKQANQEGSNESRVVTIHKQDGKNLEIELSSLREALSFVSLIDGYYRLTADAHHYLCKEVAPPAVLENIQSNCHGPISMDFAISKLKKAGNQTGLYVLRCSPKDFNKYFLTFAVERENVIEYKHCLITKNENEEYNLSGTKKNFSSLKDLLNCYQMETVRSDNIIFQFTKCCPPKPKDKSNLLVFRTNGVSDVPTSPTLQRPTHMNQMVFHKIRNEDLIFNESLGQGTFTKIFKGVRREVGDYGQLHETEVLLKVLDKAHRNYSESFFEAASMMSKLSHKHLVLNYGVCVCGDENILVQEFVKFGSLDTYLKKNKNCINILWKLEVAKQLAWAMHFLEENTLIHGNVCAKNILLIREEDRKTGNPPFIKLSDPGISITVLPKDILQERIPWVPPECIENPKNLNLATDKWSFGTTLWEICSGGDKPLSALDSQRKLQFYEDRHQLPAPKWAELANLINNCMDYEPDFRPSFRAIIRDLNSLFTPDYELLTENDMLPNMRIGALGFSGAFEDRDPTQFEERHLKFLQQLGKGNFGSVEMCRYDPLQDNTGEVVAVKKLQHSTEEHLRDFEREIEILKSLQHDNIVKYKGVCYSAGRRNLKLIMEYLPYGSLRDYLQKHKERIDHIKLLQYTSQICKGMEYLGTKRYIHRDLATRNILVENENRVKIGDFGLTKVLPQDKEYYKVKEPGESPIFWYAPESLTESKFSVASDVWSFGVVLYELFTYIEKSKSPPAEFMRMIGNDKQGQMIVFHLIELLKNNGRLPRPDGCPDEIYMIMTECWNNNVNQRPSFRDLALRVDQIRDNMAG
T1 sequence (P23458 whole entry): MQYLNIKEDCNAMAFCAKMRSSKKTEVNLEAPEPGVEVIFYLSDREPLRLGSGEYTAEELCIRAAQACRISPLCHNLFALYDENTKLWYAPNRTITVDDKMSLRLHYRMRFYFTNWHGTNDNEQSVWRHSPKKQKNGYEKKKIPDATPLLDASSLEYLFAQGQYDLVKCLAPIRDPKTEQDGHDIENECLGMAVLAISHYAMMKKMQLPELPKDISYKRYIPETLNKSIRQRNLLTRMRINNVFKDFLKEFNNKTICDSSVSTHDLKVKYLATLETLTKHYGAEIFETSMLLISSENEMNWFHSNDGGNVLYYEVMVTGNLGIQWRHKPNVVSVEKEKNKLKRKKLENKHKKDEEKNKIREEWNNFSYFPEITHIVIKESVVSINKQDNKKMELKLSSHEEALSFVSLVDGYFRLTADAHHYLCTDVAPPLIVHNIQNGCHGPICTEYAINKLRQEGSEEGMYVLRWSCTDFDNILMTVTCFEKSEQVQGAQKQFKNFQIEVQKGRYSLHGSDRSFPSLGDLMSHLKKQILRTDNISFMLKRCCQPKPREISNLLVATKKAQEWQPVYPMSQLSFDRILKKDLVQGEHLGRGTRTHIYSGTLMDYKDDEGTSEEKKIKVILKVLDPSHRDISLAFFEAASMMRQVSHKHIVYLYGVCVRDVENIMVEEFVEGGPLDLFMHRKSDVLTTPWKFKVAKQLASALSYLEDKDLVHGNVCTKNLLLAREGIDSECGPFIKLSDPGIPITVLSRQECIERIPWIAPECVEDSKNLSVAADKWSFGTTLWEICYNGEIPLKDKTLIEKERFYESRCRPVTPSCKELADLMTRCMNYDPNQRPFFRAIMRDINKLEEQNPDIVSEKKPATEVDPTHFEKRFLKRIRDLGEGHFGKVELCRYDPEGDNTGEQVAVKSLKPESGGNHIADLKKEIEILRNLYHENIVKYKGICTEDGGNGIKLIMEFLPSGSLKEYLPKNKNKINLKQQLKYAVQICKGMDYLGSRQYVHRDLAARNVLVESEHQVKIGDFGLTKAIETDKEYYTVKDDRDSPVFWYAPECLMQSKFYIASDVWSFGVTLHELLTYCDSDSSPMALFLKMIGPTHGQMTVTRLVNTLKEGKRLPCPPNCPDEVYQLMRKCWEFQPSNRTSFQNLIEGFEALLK

Row | Structure (SMILES) | hygroscopicity [1] | weight gain (moisture uptake) [1] | combined stool score endpoint as compared with vehicle treated animals [4] | further results
1 | CN(C)C/C=C/C(=O)N1CC(C(C)(C)Oc2cc(-c3ccc(O)c(Cl)c3)cc3[nH]ncc23)C1 [Form 1, (E)-1-(3-(2-((6-(3-chloro-4-hydroxyphenyl)-1H-indazol-4-yl)oxy)propan-2-yl)azetidin-1-yl)-4-(dimethylamino)but-2-en-1-one] | slightly hygroscopic | about 1.62% |  | 
2 | CN(C)C/C=C/C(=O)N1CC(COc2cc(-c3ccc(O)cc3)cc3[nH]ncc23)C1 [Form 3, (E)-4-(dimethylamino)-1-(3-(((6-(4-hydroxyphenyl)-1H-indazol-4-yl)oxy)methyl)azetidin-1-yl)but-2-en-1-one] | non-hygroscopic | about 0.33% |  | 
3 | CN(C)C/C=C/C(=O)N1CC(COc2cc(-c3ccc(O)cc3)cc3[nH]ncc23)C1 [Form 4, (E)-4-(dimethylamino)-1-(3-(((6-(4-hydroxyphenyl)-1H-indazol-4-yl)oxy)methyl)azetidin-1-yl)but-2-en-1-one] | moderately hygroscopic | about 5.01% |  | 
4 | CN(C)C/C=C/C(=O)N1CC(C(C)(C)Oc2cc(-c3ccc(O)c(Cl)c3)cc3[nH]ncc23)C1 [Form 2, (E)-1-(3-(2-((6-(3-chloro-4-hydroxyphenyl)-1H-indazol-4-yl)oxy)propan-2-yl)azetidin-1-yl)-4-(dimethylamino)but-2-en-1-one] |  | 7.99% |  | 
5 | CN(C)C/C=C/C(=O)N1CC(C(C)(C)Oc2cc(-c3ccc(O)c(F)c3)cc3[nH]ncc23)C1 [Compound 19, (E)-1-(3-(2-((6-(3-fluoro-4-hydroxyphenyl)-1H-indazol-4-yl)oxy)propan-2-yl)azetidin-1-yl)-4-(dimethylamino)but-2-en-1-one] |  |  | statistically significant decrease | IC50 [2]: < 1000 nM; Kp [3]: > 200
6 | CN(C)C/C=C/C(=O)N1CC(C)(COc2nc(-c3ccc(O)cc3)cc3[nH]ncc23)C1 [Compound 3-55] |  |  | statistically significant decrease | JAK 1 (pKi) [5]: E (a pKi value of 7 or below (Ki of 100 nM or above)); JAK 2 (pKi) [6]: E (a pKi value of 7 or below (Ki of 100 nM or above)); Tyk 2 (pKi) [7]: E (a pKi value of 7 or below (Ki of 100 nM or above)); Tall-1 (pIC50) [8]: B (a pIC50 value between 6.7 (included) and 7.5 (IC50 between 200 nM and 32 nM)); JAK 3 (pKi) [9]: A (a pKi value≥10 (Ki≤0.1 nM)); JAK3 (pKi)-JAK1 (pKi) ([9]; selectivity: difference of pKi JAK3 and pKi JAK1): A (a value of 3 or above)
